{"source": "patent US12459974B2", "about": "“Bicyclic peptide ligands specific for Nectin-4” (priority 2018, dated 2025)", "key": {"[1]": {"tested_on": "A549 xenograft", "experiment": "Example 9.1: in vivo efficacy in A549 xenograft in Balb/c nude mice", "design": "species or system Mus Musculus", "conditions": "for Tumor volume trace over time: iv; for T/C: day 14, treated group average tumor volume / control group; for Tumor volume: Mean ± SEM"}, "[2]": {"tested_on": "MDA-MB-468 cell line", "experiment": "Example 11: HCS assay, Nectin-4 BDC binding study", "assay_type": "cell-based", "description": "HCS assay was used in Nectin-4 BDC binding study. Cells were incubated with test agent and then washed. Detection was by a fluorescent antibody to MMAE."}, "[3]": {"conditions": "BCY8245 (BT8009) at 3 mg/kg", "description": "At various timepoints, animals were euthanized and plasma and tumour taken and snap frozen. Samples were analysed for MMAE."}, "[4]": {"tested_on": "MDA-MB-468 xenograft", "experiment": "Example 9.4: in vivo efficacy in MDA-MB-468 xenograft in Balb/c nude mice", "conditions": "for TGI / Tumor volume (TV) / T/C: day 21; for T/C: treated/control group average tumor volume; for Tumor volume trace over time (Day 23 to day 42): dosing suspended from day 21", "protocol": "The major endpoint was to see if the tumor growth could be delayed or mice could be cured. Tumor volume was measured three times weekly in two dimensions using a caliper, and the volume was expressed in mm^3 using the formula: V=0.5 a×b^2 where a and b are the long and short diameters of the tumor, respectively. The tumor size was then used for calculations of T/C value. The T/C value (in percent) is an indication of antitumor effectiveness; T and C are the mean volumes of the treated and control groups, respectively, on a given day. TGI was calculated for each group using the formula: TGI (%)=[1−(Ti−T0)/(Vi−V0)]×100; Ti is the average tumor volume of a treatment group on a given day, T0 is the average tumor volume of the treatment group on the day of treatment start, Vi is the average tumor volume of the vehicle control group on the same day with Ti, and V0 is the average tumor volume of the vehicle group on the day of treatment start.\nA one-way ANOVA was performed to compare tumor volume among groups, and when a significant F-statistics (a ratio of treatment variance to the error variance) was obtained, comparisons between groups were carried out with Games-Howell test. All data were analyzed using GraphPad Prism 5.0. P<0.05 was considered to be statistically significant.\n• Species: Mus Musculus • Strain: Balb/c nude • Age: 6-8 weeks • Sex: female • Body weight: 18-22 g • Number of animals: 41 mice plus spare 3.1.2.\nThe tumor cells were maintained in Leibovitz's L-15 medium supplemented with 10% heat inactivated fetal bovine serum at 37° C. in an atmosphere of 5% CO2 in air. The tumor cells were routinely subcultured twice weekly. The cells growing in an exponential growth phase were harvested and counted for tumor inoculation.\n41 animals were randomized when the average tumor volume reached 196 mm^3."}, "[5]": {"conditions": "3 mpk, biw, day 14 after the start of treatment"}, "[6]": {"conditions": "3 mpk, qw, day 14 after the start of treatment"}, "[7]": {"conditions": "5 mpk, qw, day 14 after the start of treatment"}}, "note": "Like-named read-outs stand apart in the source and are kept apart here. *1 amine or outer side, *2 acyl side, *3 side chain or, on linkers, in order; H or OH if unused. Where a SMILES comes first, the peptide text is derived from it. Bridges are numbered along the chain shown (N, C = ends). Roman numbers before positions name the chains, in order. [ ]: non-standard residue; d: D form. The star is where a group is joined. ξ: configuration not given here. TATA = O=C(CC[*:1])N1CN(C(=O)CC[*:2])CN(C(=O)CC[*:3])C1; Dolaproine = CO[C@@H]([C@@H]1CCCN1)[C@@H](C)C(=O)O; X1 = CC[C@H](C)C(C(CC(=O)[*:2])OC)N(C)[*:1]; 1Nal = N[C@@H](Cc1cccc2ccccc12)C(=O)O; X3 = O=C(CCCC(=O)[*:2])NCCC(=O)[*:1]; PABC = O=C(OCc1ccc(N[*:1])cc1)[*:2]; Hyp = O=C(O)[C@@H]1C[C@@H](O)CN1; hArg = N=C(N)NCCCC[C@H](N)C(=O)O; Cit = NC(=O)NCCC[C@H](N)C(=O)O; X2 = CC(N*)[C@@H](O)c1ccccc1; ξNMeV = CNC(C(=O)O)C(C)C; ξV = CC(C)C(N)C(=O)O; Sar = CNCC(=O)O", "data": [{"compound": "CC[C@H](C)C(C(CC(=O)N1CCC[C@H]1[C@H](OC)[C@@H](C)C(=O)NC(C)[C@@H](O)c1ccccc1)OC)N(C)C(=O)[C@@H](NC(=O)C(C(C)C)N(C)C(=O)OCc1ccc(NC(=O)[C@H](CCCNC(N)=O)NC(=O)C(NC(=O)CCCC(=O)NCCC(=O)N(C)CC(=O)N(C)CC(=O)N(C)CC(=O)N(C)CC(=O)N(C)CC(=O)N(C)CC(=O)N(C)CC(=O)N(C)CC(=O)N(C)CC(=O)N(C)CC(=O)N[C@H]2CSCCC(=O)N3CN4CN(C3)C(=O)CCSC[C@H](NC(=O)[C@@H](CC(=O)O)NC(=O)[C@H](Cc3cccc5ccccc35)NC(=O)[C@@H]3CCCN3C2=O)C(=O)N[C@@H](CCSC)C(=O)N[C@@H](CCCCNC(=N)N)C(=O)N[C@@H](CC(=O)O)C(=O)N[C@@H](Cc2c[nH]c3ccccc23)C(=O)N[C@@H](CO)C(=O)N[C@@H]([C@@H](C)O)C(=O)N2CCC[C@H]2C(=O)N2C[C@H](O)C[C@H]2C(=O)N[C@@H](Cc2c[nH]c3ccccc23)C(=O)N[C@H](C(N)=O)CSCCC4=O)C(C)C)cc1)C(C)C", "note": "(stereo partly drawn) [BCY8245, MMAE-PABC-Cit-Val-Glutaryl-BCY8234] (I: [Sar][Sar][Sar][Sar][Sar][Sar][Sar][Sar][Sar][Sar]CP[1Nal][dD]CM[hArg]DWSTP[Hyp]WC-NH2 / II: [ξV][Cit][PABC][ξNMeV]V[X1][Dolaproine]-X2; linker I:11-I:15-I:25 via TATA; linker I:N-II:N via X3)", "values": [{"measurement": "Tumor volume trace over time", "setting": "[1]; 3 mpk, biw, day 0 after the start of treatment", "result": "157 ± 14"}, {"measurement": "Tumor volume trace over time", "setting": "[1]; 3 mpk, biw, day 2 after the start of treatment", "result": "183 ± 27"}, {"measurement": "Tumor volume trace over time", "setting": "[1]; 3 mpk, biw, day 5 after the start of treatment", "result": "158 ± 16"}, {"measurement": "Tumor volume trace over time", "setting": "[1]; 3 mpk, biw, day 7 after the start of treatment", "result": "184 ± 6"}, {"measurement": "Tumor volume trace over time", "setting": "[1]; 3 mpk, biw, day 9 after the start of treatment", "result": "182 ± 8"}, {"measurement": "Tumor volume trace over time", "setting": "[1]; 3 mpk, biw, day 12 after the start of treatment", "result": "190 ± 15"}, {"measurement": "Tumor volume trace over time", "setting": "[1]; [5]", "result": "194 ± 27"}, {"measurement": "T/C", "setting": "[1]; 3 mpk, biw", "result": 34.2, "unit": "%"}, {"measurement": "TGI", "setting": "[1]; [5]", "result": 90.8, "unit": "%"}, {"measurement": "Tumor volume", "setting": "[1]; [5]", "result": "194 ± 27", "unit": "mm^3"}, {"measurement": "Tumor volume trace over time", "setting": "[1]; 3 mpk, qw, day 0 after the start of treatment, mean ± SEM", "result": "157 ± 10"}, {"measurement": "Tumor volume trace over time", "setting": "[1]; 3 mpk, qw, day 2 after the start of treatment", "result": "208 ± 15"}, {"measurement": "Tumor volume trace over time", "setting": "[1]; 3 mpk, qw, day 5 after the start of treatment", "result": "197 ± 25"}, {"measurement": "Tumor volume trace over time", "setting": "[1]; 3 mpk, qw, day 7 after the start of treatment", "result": "257 ± 40"}, {"measurement": "Tumor volume trace over time", "setting": "[1]; 3 mpk, qw, day 9 after the start of treatment", "result": "293 ± 41"}, {"measurement": "Tumor volume trace over time", "setting": "[1]; 3 mpk, qw, day 12 after the start of treatment", "result": "341 ± 54"}, {"measurement": "Tumor volume trace over time", "setting": "[1]; [6]", "result": "356 ± 53"}, {"measurement": "T/C", "setting": "[1]; 3 mpk, qw", "result": 62.8, "unit": "%"}, {"measurement": "TGI", "setting": "[1]; [6]", "result": 51.4, "unit": "%"}, {"measurement": "Tumor volume", "setting": "[1]; [6]", "result": "356 ± 53", "unit": "mm^3"}, {"measurement": "Tumor volume trace over time", "setting": "[1]; 5 mpk, qw, day 0 after the start of treatment", "result": "157 ± 14"}, {"measurement": "Tumor volume trace over time", "setting": "[1]; 5 mpk, qw, day 2 after the start of treatment", "result": "179 ± 22"}, {"measurement": "Tumor volume trace over time", "setting": "[1]; 5 mpk, qw, day 5 after the start of treatment", "result": "147 ± 10"}, {"measurement": "Tumor volume trace over time", "setting": "[1]; 5 mpk, qw, day 7 after the start of treatment", "result": "172 ± 23"}, {"measurement": "Tumor volume trace over time", "setting": "[1]; 5 mpk, qw, day 9 after the start of treatment", "result": "173 ± 24"}, {"measurement": "Tumor volume trace over time", "setting": "[1]; 5 mpk, qw, day 12 after the start of treatment", "result": "204 ± 36"}, {"measurement": "Tumor volume trace over time", "setting": "[1]; [7]", "result": "228 ± 33"}, {"measurement": "T/C", "setting": "[1]; 5 mpk, qw", "result": 40.2, "unit": "%"}, {"measurement": "TGI", "setting": "[1]; [7]", "result": 82.6, "unit": "%"}, {"measurement": "Tumor volume", "setting": "[1]; [7]", "result": "228 ± 33", "unit": "mm^3"}, {"measurement": "bodyweight (in words)", "setting": "[1]; all dose groups", "result": "maintained the bodyweight well"}, {"measurement": "tumor response (in words)", "setting": "[1]; mouse, in vivo", "result": "tumor growth is restrained by BCY8245 but the tumor does not undergo regression"}, {"measurement": "Bmax (in words)", "setting": "[2]", "result": "lower than for the Nectin-4 ADC"}, {"measurement": "binding affinity on MDA-MB-468 cell line (in words)", "setting": "[2]", "result": "single digit nanomolar affinity"}, {"measurement": "Max fluorescent intensity", "setting": "[2]; MDA-MB-468 cell line, fluorescent antibody to MMAE", "result": 13.34}, {"measurement": "Kd", "setting": "[2]; MDA-MB-468 cell line, historical data, read-out: Historical Kd", "result": 5.18, "unit": "nM"}, {"measurement": "Kd", "setting": "[2]; MDA-MB-468 cell line, read-out: Kd", "result": 3.52, "unit": "nM"}, {"measurement": "retention on the cells (in words)", "setting": "[2]; detection by a fluorescent antibody to MMAE", "result": "retained on the cells"}, {"measurement": "retention of MMAE in tumour versus plasma (in words)", "setting": "[3]", "result": "retained in the tumour longer than in plasma"}, {"measurement": "TGI", "setting": "[4]; 3 mg/kg biw", "result": 169.8, "unit": "%"}, {"measurement": "Tumor volume (TV)", "setting": "[4]; 3 mg/kg biw", "result": 22, "unit": "mm^3"}, {"measurement": "TGI", "setting": "[4]; 3 mg/kg qw", "result": 144.2, "unit": "%"}, {"measurement": "Tumor volume (TV)", "setting": "[4]; 3 mg/kg qw", "result": 85, "unit": "mm^3"}, {"measurement": "TGI", "setting": "[4]; 5 mg/kg qw", "result": 168.4, "unit": "%"}, {"measurement": "Tumor volume (TV)", "setting": "[4]; 5 mg/kg qw", "result": 29, "unit": "mm^3"}, {"measurement": "TGI", "setting": "[4]; 3 mpk, biw, iv", "result": 169.8, "unit": "%"}, {"measurement": "T/C", "setting": "[4]; 3 mpk, biw, iv", "result": 4.9, "unit": "%"}, {"measurement": "TGI", "setting": "[4]; 3 mpk, qw, iv", "result": 144.2, "unit": "%"}, {"measurement": "T/C", "setting": "[4]; 3 mpk, qw, iv", "result": 18.9, "unit": "%"}, {"measurement": "Tumor volume trace over time (Day 23 to day 42)", "setting": "[4]; 5 mpk, qw, iv, day 23 after the start of treatment", "result": "35 ± 5", "unit": "mm^3"}, {"measurement": "Tumor volume trace over time (Day 23 to day 42)", "setting": "[4]; 5 mpk, qw, iv, day 25 after the start of treatment", "result": "48 ± 5", "unit": "mm^3"}, {"measurement": "Tumor volume trace over time (Day 23 to day 42)", "setting": "[4]; 5 mpk, qw, iv, day 28 after the start of treatment", "result": "37 ± 7", "unit": "mm^3"}, {"measurement": "Tumor volume trace over time (Day 23 to day 42)", "setting": "[4]; 5 mpk, qw, iv, day 32 after the start of treatment", "result": "28 ± 6", "unit": "mm^3"}, {"measurement": "Tumor volume trace over time (Day 23 to day 42)", "setting": "[4]; 5 mpk, qw, iv, day 35 after the start of treatment", "result": "24 ± 4", "unit": "mm^3"}, {"measurement": "Tumor volume trace over time (Day 23 to day 42)", "setting": "[4]; 5 mpk, qw, iv, day 39 after the start of treatment", "result": "28 ± 6", "unit": "mm^3"}, {"measurement": "Tumor volume trace over time (Day 23 to day 42)", "setting": "[4]; 5 mpk, qw, iv, day 42 after the start of treatment", "result": "26 ± 6", "unit": "mm^3"}, {"measurement": "TGI", "setting": "[4]; 5 mpk, qw, iv", "result": 168.4, "unit": "%"}, {"measurement": "T/C", "setting": "[4]; 5 mpk, qw, iv", "result": 6.6, "unit": "%"}, {"measurement": "tumor response (in words)", "setting": "[4]; mouse, in vivo", "result": "causes regression of the tumor"}]}]}
